According to patent US20250353860A1, “PIPERIDINE CARBOXAMIDE AZAINDANE DERIVATIVE, METHOD FOR PREPARING SAME, AND USE THEREOF” (BRISE PHARMACEUTICALS CO., LTD., priority 2022, published 2025):

Tests used:
[1] = target: T1, CGRP receptor (Homo sapiens, UniProt O60894+Q16602); experiment: Inhibition of CGRP signaling pathway (cAMP, HTRF) in SK-N-MC cells; format: cell-based; design: SK-N-MC (ATCC, HTB-10) cells endogenously expressing CGRP receptor; host or cells: SK-N-MC; conditions: [α-CGRP]=10 ng/mL; increase in cAMP levels; read-out: IC50 of the inhibitory effect on the CGRP signaling pathway in SK-N-MC cells
Procedure: (§1) The inhibitory effect of the CGRP signaling pathway in vitro is evaluated by measuring the cAMP level. The principle is that after CGRP binds to the CGRP receptor, the CGRP signaling pathway is activated, inducing an increase in the cAMP level. […] The specific experimental method is as follows:
cAMP was determined using the CAMP-GS DYNAMIC KIT detection kit (Cisbio, 62AM4PEB).
SK-N-MC (ATCC, HTB-10) cells endogenously expressing CGRP receptor were cultured in EMEM+10% FBS medium and the cells were collected during the logarithmic growth phase. According to the instructions of the kit, the cells were resuspended in Stimulation Buffer comprising 0.5 mM IBMX, and 5 μL of the cell suspension was added to each well of a 96-well microplate (Cisbio, 66PL96025) at a cell density of 15,000 cells/well, 2.5 μL of gradient diluted compound solution was added to each well. After incubation at 37° C. for 30 minutes, 2.5 μL of 40 ng/ml human α-CGRP (Bachem, H-1470.0500) diluted in Stimulation Buffer comprising 0.5 mM IBMX was added to each well to a final concentration of 10 ng/ml. After incubation at 37° C. for 30 minutes, 5 μL of Anti-cAMP-Cryptate solution and 5 μL of cAMP-d2 solution were added to each well. After incubation at room temperature for 60 minutes, the HTRF signal was read using a microplate reader (Molecular Devices). Graphpad Prism was used to calculate the IC50 value of the compound's inhibitory effect on the increase in cAMP levels based on the compound concentration and HTRF signal.

[2] = target: T1, CGRP receptor; experiment: Affinity for human CGRP receptor ([125I]h-CGRPα competition, CHO cell membranes); format: binding; design: host or cells: CHO-K1; conditions: 0.03 nM [125I]h-CGRPα; Cheng Prusoff; read-out: Ki of the affinity determination to human CGRP receptor
Procedure: The cell membrane homogenate of CHO cells expressing human CGRP receptor (comprising 16 μg of protein) was incubated with 0.03 nM [^125I]h-CGRPα and gradiently diluted test samples in buffer (50 mM Hepes-NaOH (pH 7.4), 10 mM MgCl2, 4 mM KCl, 10 mM […], 1 mM EDTA, 1 μM phosphorylation amide, 0.3% BSA and 0.04% bacitracin) at 22° C. for 90 minutes. A control group without the test sample was set up to obtain the highest binding signal of the experiment, and the non-specific binding of the experiment was determined by adding 1 μM non-isotope-labeled h-CGRPα to the control group. After the incubation, a glass fiber filter (GF/B, Packard) soaked with 0.3% PEI was placed in a 96-well cell collector (Unfilter, Packard), and the sample was quickly filtered under vacuum and rinsed several times with precooled buffer comprising 50 mM Tris-HCl and 150 mM NaCl. After the filter was dried, scintillation fluid (Microscint 0, Packard) was added and the radioactive signal value was measured using a scintillation counter (Topcount, Packard). The results are expressed as the percentage of inhibition of specific binding of the radioligand. Non-isotope labeled h-CGRPα was used as a standard sample as a control. The test samples and standard samples were tested at multiple concentrations to obtain a competition curve with [^125I]h-CGRPα, thereby calculating the IC50) 20 of each sample. The inhibition constant Ki was further calculated using the Cheng Prusoff equation: Ki=IC50/(1+L/KD), wherein L represents the concentration of [^125I]h-CGRPα in the system (0.03 nM), and KD represents the dissociation constant between [^125I]h-CGRPα and the human CORP receptor in the system (0.06 nM).

[3] = Pharmacokinetics in Cynomolgus monkeys by oral gavage; format: in vivo; conditions: for AUC / half-life / Cmax: male, cynomolgus monkey, plasma, PO 2 mg/kg; for half-life: read-out: Half-life T½ (converted); for Cmax: read-out: Plasma concentration Cmax; for Pharmacokinetic properties compared with Atogepant: conclusion in words
Procedure: The compounds of the present application were administered by gavage to cynomolgus monkeys as test animals, and the drug concentrations in plasma at different times were determined by LC/MS/MS to study the pharmacokinetic characteristics of the compounds of the present application […].
• Positive control compound Atogepant, Example 1A and Example 3A of the present application; • Six healthy adult male Cynomolgus monkeys, Kangshun Biotechnology Co., Ltd.
An appropriate amount of the compound to be tested was weighed, added with 100% polyethylene glycol 400, and vortexed to dissolve the compound. After the preparation was completed, it would be a colorless and transparent solution with a concentration of 1 mg/mL.
Six healthy adult male cynomolgus monkeys were fasted overnight and fed 4 hours after drug administration.
About 0.2 mL of blood was collected from the jugular vein before administration and 0.25 hours, 0.5 hours, 1 hour, 2 hours, 4 hours, 6 hours, 8 hours, 10 hours and 24 hours after administration, and anticoagulated with EDTA-K2. After blood samples were collected, they were placed in labeled ice-water bath centrifuge tubes and rapidly centrifuged to separate plasma. The centrifugation conditions were: 4000 rpm, 10 minutes, 4° C. The collected plasma was stored at below −40° C. for testing. The content of the test compound in the plasma of Cynomolgus monkeys after gavage of different compounds was determined by LC-MS/MS.

[4] = target: T1, CGRP receptor; experiment: Inhibition of CGRP signaling pathway (cAMP, HTRF) in CHO-K1 cells expressing human CGRP receptors; format: cell-based; design: host or cells: CHO-K1; conditions: [α-CGRP]=10 ng/ml; increase in cAMP levels; read-out: IC50 of the inhibitory effect on the CGRP signaling pathway in CHO-K1 cells expressing human CGRP receptors
Procedure: as §1
CHO-K1 cells expressing human CGRP receptor (CGRPR/CHO-K1, PerkinElmer, ES-420-C) were cultured in F12K+10% FBS+400 μg/mL G418+10 μg/mL Blasticidin medium, and the cells were collected in the logarithmic growth phase. According to the instructions of the kit, the cells were resuspended in Stimulation Buffer comprising 0.5 mM IBMX, and 5 μL of the cell suspension was added to each well of a 96-well microplate (Cisbio, 66PL96025) at a cell density of 15,000 cells/well. 2.5 μL of gradient diluted compound solution was added to each well. After incubation at 37° C. for 30 minutes, 2.5 μL of 40 ng/ml human α-CGRP (Bachem, H-1470,0500) diluted in Stimulation Buffer comprising 0.5 mM IBMX was added to each well to a final concentration of 10 ng/ml. After incubation at 37° C. for 30 minutes, 5 μL of Anti-cAMP-Cryptate solution and 5 μL of cAMP-d2 solution were added to each well. After incubation at room temperature for 60 minutes, the HTRF signal was read using a microplate reader (Molecular Devices). Graphpad Prism was used to calculate the IC50 value of the compound's inhibitory effect on the increase in cAMP levels based on the compound concentration and HTRF signal.

Row | Structure (SMILES) | IC50 [1] [nM] | Ki [2] [nM] | AUC [3] [µg·h/mL] | half-life [3] [h] | Cmax [3] [µg/mL] | IC50 [4] [nM] | Pharmacokinetic properties compared with Atogepant [3]
1 | C[C@@H]1[C@H](c2c(F)ccc(F)c2F)C[C@H](NC(=O)c2cnc3c(c2)C[C@@]2(C3)C(=O)Nc3ncccc32)C(=O)N1CC(F)(F)F [Atogepant, reference compound] | 0.12 | 0.0098 | 0.396 ± 0.042 | 1.5 ± 0.1 | 0.108 ± 0.018 | 1.5 | –
2 | C[C@@H]1[C@H](c2c(F)ccc(F)c2F)C[C@H](NC(=O)c2cc3c(o2)CC[C@]2(C3)C(=O)Nc3ncccc32)C(=O)N1CC(F)(F)F [Example 1A, (R)—N-((3S,5S,6R)-6-methyl-2-oxo-1-(2,2,2-trifluoroethyl)-5-(2,3,6-trifluorophenyl)piperidin-3-yl)-2′-oxo-1′,2′,6,7-tetrahydro-4H-spiro[benzofuran-5,3′-pyrrolo[2,3-b]pyridine]-2-carboxamide] | 0.18 | 0.017 | 1.84 ± 1.19 | 3.77 ± 0.2 | 0.294 ± 0.166 | 14.5 | good pharmacokinetic properties
3 | C[C@@H]1[C@H](c2c(F)ccc(F)c2F)C[C@H](NC(=O)c2cc3c(s2)C[C@]2(C3)C(=O)Nc3ncccc32)C(=O)N1CC(F)(F)F [Example 3A, (S)—N-((3S,5S,6R)-6-methyl-2-oxo-1-(2,2,2-trifluoroethyl)-5-(2,3,6-trifluorophenyl)piperidin-3-yl)-2′-oxo-1′,2′,4,6-tetrahydrospiro[cyclopenta[b]thiophene-5,3′-pyrrolo[2,3-b]pyridine]-2-carboxamide] | 0.68 | 0.019 | 3.59 ± 0.742 | 2.96 ± 0.3 | 0.778 ± 0.144 | 2.9 | good pharmacokinetic properties
